Measured values reported in patent US20170198292A1, “Methods and Compositions for Modulating Lung Cancer Tumor Initiating Cells (TIC), and Oxytocin Receptor (OXTR) Modulatory Agents for Use in Practicing the Same” (The Board of Trustees of the Leland Stanford Junior …, priority 2014, published 2017).

Key:
Format in all cases: cell-based, human
[1] = test system: regular H226 and H520 cells; experiment: Proliferation of regular cancer cells; conditions: for cell proliferation of regular H226 and H520 cells: 3-day treatment
Method: All gene expression and survival data were obtained from publicly-available resources: NCI TCGA and NCBI GEO. Human lung cancer tissue samples were purchased from US Biomax. Cell imaging was acquired using a confocal laser scanning microscope at the Stanford Fluorescence Microscopy Core. FACS was done at the Stanford FACS core facility. All sphere-forming assays and mouse xenograft model were performed at the Stanford Transgenic, Knockout and Tumor Model Center. qRT-PCR and sequencing was performed at Stanford Protein and Nucleic Acid Facility. • A. Text mining of lung TIC associated literature. PubMed literatures were queried on Apr. 13, 2015, using the search term, (“Neoplastic Stem Cells”[majr] OR “tumor-propagating cells”[All Fields]) AND “lung cancer”[All Fields]. […] Words with a prefix “CD” followed by digits were extracted from the title and abstract of each article. Resulted terms were manually examined. Immune cell CD markers were excluded from the list. CD marker with positive sign, such as CD133+, was treated as different from CD133 or CD133−. The number of unique occurrence of each term is counted in titles and abstracts. Terms occurred in at least two different articles were selected for ranking by its occurrence frequency. • B. Primary Tumor Cell Preparation. SQCC samples were collected from patients according to protocols approved by the Stanford IRB board. Samples were washed, dissociated, and incubated in DNase and collagenase/dispase. After incubation, cell clusters and red blood cells were removed. The single cells were resuspended and prepared for cell culture and staining. • C. Microarray datasets. The TOGA lung cancer gene expression datasets were downloaded from the TOGA data portal on September 2012. […] Meta-analysis of correlations were performed using R package meta, where fixed and random effects estimates were calculated and inverse variance weighting was used for pooling. […] Quantitative IF imaging signal of human lung tissue samples were measured using the Bioquant image analysis software in the Nikon 8000 microscope and Leica DMI 6000B. • E. Flow Cytometry. […]

[2] = test system: tumor spheres of H226 and H520 cells; experiment: Sphere-forming assay (tumor spheres / TIC growth)
Method: All gene expression and survival data were obtained from publicly-available resources: NCI TCGA and NCBI GEO. Human lung cancer tissue samples were purchased from US Biomax. Cell imaging was acquired using a confocal laser scanning microscope at the Stanford Fluorescence Microscopy Core. FACS was done at the Stanford FACS core facility. All sphere-forming assays and mouse xenograft model were performed at the Stanford Transgenic, Knockout and Tumor Model Center. qRT-PCR and sequencing was performed at Stanford Protein and Nucleic Acid Facility. • A. Text mining of lung TIC associated literature. PubMed literatures were queried on Apr. 13, 2015, using the search term, (“Neoplastic Stem Cells”[majr] OR “tumor-propagating cells”[All Fields]) AND “lung cancer”[All Fields]. […] Words with a prefix “CD” followed by digits were extracted from the title and abstract of each article. Resulted terms were manually examined. Immune cell CD markers were excluded from the list. CD marker with positive sign, such as CD133+, was treated as different from CD133 or CD133−. The number of unique occurrence of each term is counted in titles and abstracts. Terms occurred in at least two different articles were selected for ranking by its occurrence frequency. • B. Primary Tumor Cell Preparation. SQCC samples were collected from patients according to protocols approved by the Stanford IRB board. Samples were washed, dissociated, and incubated in DNase and collagenase/dispase. After incubation, cell clusters and red blood cells were removed. The single cells were resuspended and prepared for cell culture and staining. • C. Microarray datasets. The TOGA lung cancer gene expression datasets were downloaded from the TOGA data portal on September 2012. No significant changes in available sample size were found during a recent check. These datasets were selected based on two criteria: explicit pathological diagnosis of SQCC and associated with an actual publication. Pearson or Spearman correlation analysis was used for the association study, depending on whether the distribution of the gene expression data is parametric or non-parametric. Multiple hypothesis testing was corrected using false discovery rates to select associations with a q value less than 0.1. Meta-analysis of correlations were performed using R package meta, where fixed and random effects estimates were calculated and inverse variance weighting was used for pooling. Survival data was extracted from all the datasets whenever they were available. Proportional hazards regression analysis was performed with the gene expression of OXTR and CD133 as covariates. Proportional hazard hypothesis was test based on weighted residuals. • D. Cell Culture and Imaging. H226, H520, HCC827, H522 and NL20 cell lines were purchased from ATCC and cultured in recommended cell medium for bulk cancer cell growth. HCC95 and H157 were from Dr. Sage's laboratory. APC conjugated mouse anti-CD133 Ab (BioLegend 14208), goat anti-OXTR Ab (Life Technologies ab87312) with anti-goat Alexa488 (Life Technologies A11055), rabbit anti-CD44 (Santa Cruz Biotech sc-7946) with anti-rabbit Alexa594 (Life Technologies A21207) and rabbit anti-OXT with anti-rabbit Alexa594 were used to stain CD133, OXTR, CD44 and OXT respectively in human tissue samples and cell lines for immunofluorescence (IF) imaging. Goat F(ab′)2 IgG (Life Technologies 11301C) and isotype control for rabbit primary Ab (Life Technology 08-6199) were used as isotype control of OXTR Ab and CD133 Ab. Quantitative IF imaging signal of human lung tissue samples were measured using the Bioquant image analysis software in the Nikon 8000 microscope and Leica DMI 6000B. • E. Flow Cytometry. Cells were stained with CD133, CD44 or OXTR Ab separately for single channel counting, and stained with CD133 and OXTR Ab for double channel counting and sorting. Cells were also stained for secondary Ab alone for subtraction of non-specific binding. […]

[3] = test system: tumor spheres derived from primary SQCC cells; experiment: Sphere-forming assay, primary SQCC cells; conditions: at 5 μM; three days
Method: All gene expression and survival data were obtained from publicly-available resources: NCI TCGA and NCBI GEO. Human lung cancer tissue samples were purchased from US Biomax. Cell imaging was acquired using a confocal laser scanning microscope at the Stanford Fluorescence Microscopy Core. FACS was done at the Stanford FACS core facility. All sphere-forming assays and mouse xenograft model were performed at the Stanford Transgenic, Knockout and Tumor Model Center. qRT-PCR and sequencing was performed at Stanford Protein and Nucleic Acid Facility. • A. Text mining of lung TIC associated literature. PubMed literatures were queried on Apr. 13, 2015, using the search term, (“Neoplastic Stem Cells”[majr] OR “tumor-propagating cells”[All Fields]) AND “lung cancer”[All Fields]. […] Words with a prefix “CD” followed by digits were extracted from the title and abstract of each article. Resulted terms were manually examined. […] The number of unique occurrence of each term is counted in titles and abstracts. […] Meta-analysis of correlations were performed using R package meta, where fixed and random effects estimates were calculated and inverse variance weighting was used for pooling. […] Quantitative IF imaging signal of human lung tissue samples were measured using the Bioquant image analysis software in the Nikon 8000 microscope and Leica DMI 6000B. • E. Flow Cytometry. […]

H226 and H520 cells = experiment: Colony formation; conditions: statistically significant at 0.5 μM, 5 μM and 10 μM
From the text: To determine whether the expression of OXTR is associated with the growth of regular cancer cells and TICs, we treated regular cancer cells and tumor spheres of SQCC cell lines with an OXTR specific inhibitor (Manning et al.,“Oxytocin and vasopressin agonists and antagonists as research tools and potential therapeutics,” Journal of neuroendocrinology (2012) 24: 609-628), L-368,899 (L3) to suppress its activity, or its natural ligand oxytocin (OXT) to induce its activity.

ERK1/2 = ERK1/2 phosphorylation, western blot

Row | Compound | cell proliferation of regular H226 and H520 cells [1] | tumor sphere numbers ([2]; H226 and H520 cells, after 3 days of treatment, statistically significant at 5 μM and 10 μM) | sphere growth of tumor spheres derived from primary SQCC cells [3] | colony formation of H226 and H520 cells (H226 and H520 cells) | tumor sphere size vs solvent control ([2]; H226 and H520 tumor spheres treated for three days) | tumor sphere growth ([2]; both cell lines (H226, H520), statistically significant at as low as 10 nM) | phosphorylation of ERK1/2 in regular H226 and H520 cells (ERK1/2; 100 nM for two days, compared to solvent control) | phosphorylation of ERK1/2 in TICs (ERK1/2; 100 nM for two days, compared to solvent control, tumor spheres of H226 and H520) | proliferation in regular cancer cells ([1]; H226 and H520 cells) | rescue of the inhibitory effect by increasing dose of OXT ([2]; H226 and H520) | TIC growth ([2]; H226 and H520 spheres) | OXT induced increase of TIC growth ([2]; both H226 and H520 cells, co-treatment with OXT) | OXT induced phosphorylation of ERK1/2 (ERK1/2; CCs and TICs of H226 and H520 cell lines, co-treatment with OXT)
1 | Cc1ccccc1N1CCN(S(=O)(=O)C[C@]23CC[C@H](C[C@@H]2NC(=O)[C@@H](N)CCS(C)(=O)=O)C3(C)C)CC1 [L3, (S)-2-amino-N-((1S,2S,4R)-7,7-dimethyl-1-((4-o-tolylpiperazin-1-lsulfonyl)methyl)bicyclo[2.2.1]heptan-2-yl)-4-(methylsulfonyl)butanamide] | neither L3 nor OXT affected the cell proliferation | dose-dependent decrease | significantly reduced the sphere growth | reduced the colony formation | – | – | – | – | – | – | – | – | –
2 | CC[C@H](C)[C@@H]1NC(=O)[C@H](Cc2ccc(O)cc2)NC(=O)[C@@H](N)CSSC[C@@H](C(=O)N2CCC[C@H]2C(=O)N[C@@H](CC(C)C)C(=O)NCC(N)=O)NC(=O)[C@H](CC(N)=O)NC(=O)[C@H](CCC(N)=O)NC1=O [OXT, oxytocin] | neither L3 nor OXT affected the cell proliferation | – | – | – | significantly larger | dose dependent increase | unchanged | greatly increased | – | – | – | – | –
3 | N#CC(=C(/N)Sc1ccccc1N)/C(C#N)=C(\N)Sc1ccccc1N [U0126] | – | – | – | – | – | – | – | – | increased proliferation | could not be rescued | dose dependent inhibition | blocked | inhibited
